Test results as given in patent US9840494B2, “Quinazoline derivative” (Tianjin Hemay Oncology Pharmaceutical Co., Ltd., priority 2013, dated 2017).
Marks after values point to notes of the source that are not given here.

How the values were obtained:
[1] = test system: A431 human epidermal carcinoma xenograft; test: A431 human epidermal carcinoma xenograft model; type: in vivo, nude mice; conditions: for Tumor Weight (x ± S.D.) / Tumor Inhibitor Rate / Relative Tumor Volume (x ± S.D.) / T/C / Tumor Volume (x ± S.D.): A431 xenograft; for Tumor Inhibitor Rate: by tumor weight; for Relative Tumor Volume (x ± S.D.) / T/C / Tumor Volume (x ± S.D.): end of the assay
Description: Tumor cells were cultured in an incubator at 37° C. with 5% CO2 using MEM medium containing 10% inactivated fetal calf serum, 100 U/ml penicillin and 100 µg/ml streptomycin. The tumor cells in logarithmic growth phase were collected, adjusted to an appropriate density and injected subcutaneously into nude mice (0.2 ml per mouse). An xenograft model was established after a tumor was formed in the nude mice and passaged in vivo for more than three generations.
The above-mentioned tumor-bearing mice were sacrificed by cervical dislocation. The tumor was taken out and cut into small tumor pieces (about 2 mm×2 mm×2 mm) under sterile conditions. The small tumor pieces were inoculated subcutaneously into nude mice with a trocar. […] The animals in each group were subjected to intragastric administration once a day for 14 consecutive days. The day of grouping is assigned as day 0.
Tumor volume is calculated as: volume =0.5×long diameter×short diameter^2. The relative tumor volume (RTV) was calculated based on the measurements as: RTV=Vt/V0, wherein V0 is the tumor volume measured when the animals were grouped to be administrated (i.e., d0), and Vt is the tumor volume when each measurement was taken. Relative tumor proliferation rate T/C was calculated based on relative tumor volume, in which T is the mean value of the relative tumor volume of the treatment group, and C is the mean value of the relative tumor volume of the solvent control group. T/C was calculated as follows: T/C=TRTV/CRTV×100% (TRTV: RTV of the treatment group; CRTV:
RTV of the solvent control group) Inhibition rate (%)=(mean tumor weight of the solvent control group−mean tumor weight of the treatment group)/mean tumor weight of the solvent control group×100%. Percentage of body weight change=Wn/W0×100% (Wn: mean body weight of experimental animals in each group at day n, W0: mean body weight of experimental animals in each group at day 0).
One-Way ANOVA test was conducted in SPSS13.0, performing statistical analysis between groups.

[2] = test system: human pancreatic cancer cell line AsPC-1; test: In vitro inhibitory action on human tumor cells, AsPC-1 (MTT); type: cell-based; conditions: ASPC1, 72 h, MTT assay, usually 3 days
Description: Human epidermoid carcinoma cell line A431, human non-small cell lung cancer cell line HCC827, head and neck cancer cell lines Fadu and human pancreatic cancer cell line AsPC-1 were purchased from Cell Bank, Chinese Academy of Sciences.
3.2 Cell culture method: cells were cultured in the complete medium at 37° C. under 5% CO2 and saturated humidity until logarithmic growth phase, i.e., adherent cells substantially approach complete confluence, and then collected for subsequent assay. For the adherent cells, they were firstly digested with trypsin/EDTA to detach.
3.3 A certain number of cells were seeded into 96-well cell culture plates (hereinafter referred to as 96-well plates). […] Finally, total cellular protein in the wells was determined using SRB assay, or cell viability was determined with MTT assay.
3.3.1 The cell seeding concentration was determined by cell growth curve assay which completely simulates compound inhibition assay process. […]
3.4 Dilution and addition of compounds: the concentration of DMSO that can be tolerant by the cells was determined by DMSO tolerance assay, and thereby selecting the dilution and addition methods of compounds. The effects of different concentrations of DMSO on cell growth were determined by DMSO tolerance assay. […] Two methods are finally determined as follows. […]

[3] = A431 xenograft nude mice, 20, 40 and 80 mg/kg intragastric once a day for 14 days
[4] = 20 mg/kg intragastric once a day for 14 days
[5] = 40 mg/kg intragastric once a day for 14 days
[6] = 80 mg/kg intragastric once a day for 14 days

## COCCOc1cc2ncnc(Nc3ccc(F)c(Cl)c3)c2cc1NC(=O)C=C1CCN(CCOC)CC1.CS(=O)(=O)O [Compound 3, N-[4-(3-chloro-4-fluorophenylamino)-7-(2-methoxyethoxy)quinazolin-6-yl]-2-[1-(2-methoxyethyl)piperidin-4-ylidene]acetamide dimethylsulfonate]
[1]; [3]
  Body weights of the experimental animals: not significantly reduced
  abnormality in the experimental animals: no significant abnormality was observed
[1]; [4]
  Tumor Weight (x ± S.D.): 0.232 ± 0.312 g
  Tumor Inhibitor Rate: 68.6%
  Relative Tumor Volume (x ± S.D.): 2.3 ± 1.5
  T/C: 30.6%
  Tumor Volume (x ± S.D.): 424.9 ± 434.0*** mm^3
[1]; [5]
  Tumor Weight (x ± S.D.): 0.199 ± 0.153 g
  Tumor Inhibitor Rate: 73.2%
  Relative Tumor Volume (x ± S.D.): 2.8 ± 2.3
  T/C: 37.7%
  Tumor Volume (x ± S.D.): 418.9 ± 284.7*** mm^3
[1]; [6]
  Tumor Weight (x ± S.D.): 0.107 ± 0.126 g
  Tumor Inhibitor Rate: 85.6%
  Relative Tumor Volume (x ± S.D.): 1.4 ± 0.9
  T/C: 19.1%
  Tumor Volume (x ± S.D.): 254.7 ± 228.2*** mm^3
[2]
  IC50: 4.3 µM
